Where two headings read alike, the source gives them in different places.
Experiments:
[1] = Phase 1b: pharmacokinetics at Cycle 1, Day 15; details: human, in vivo
Method: (§1) Additional patients were enrolled at the RP2D.
(§2) The primary endpoint in Phase 1b was incidence of dose-limiting toxicities (DLTs) during Cycle 1. Details of DLTs are defined in Supplementary Table 3. Pharmacokinetics (PK) endpoints, including Cmax, and area under the concentration–time curve over the dosing interval at steady state (AUCτ,ss), were evaluated at Cycle 1, Day 15 as a secondary endpoint in Phase 1b. Selected efficacy measures were evaluated as secondary endpoints in Phase 1b.
(§3) Continuous variables, including PK data, were summarised using descriptive statistics; qualitative variables were summarised by means of counts and percentages.

[2] = test system: patients with sorafenib pretreated advanced hepatocellular carcinoma (aHCC); experiment: Phase 1b dose escalation ('3 + 3'): DLTs and adverse events; format: in vivo
From the text: (§4) In both study phases, eligible patients were ≥18 years old with aHCC, Child–Pugh Class A liver function score, Eastern Cooperative Oncology Group performance status 0 or 1, and measurable disease defined by Response Evaluation Criteria In Solid Tumors (RECIST) v1.1. […] Exclusion criteria included any prior systemic anti-cancer treatment for aHCC (besides sorafenib) and presence of symptomatic or untreated brain metastases. Full inclusion and exclusion criteria are shown in Supplementary Table 1.
as §1, §2
In Phase 2, the primary endpoint was progression-free survival (PFS) status after 12 weeks of treatment, as assessed by the investigator per RECIST v1.1. Secondary endpoints included TTP, time to symptomatic progression, objective response rate (ORR), disease control rate (DCR) (all investigator-assessed and per RECIST v1.1), PFS per modified RECIST v1.1 (investigator-assessed), OS and biological response (defined as a decrease in AFP >20%). As sensitivity analyses, PFS and TTP were also evaluated by independent review. Safety was assessed via reporting of adverse events (AEs), graded according to National Cancer Institute Common Terminology and Criteria for Adverse Events v4.0.
as §3
Patients who were replaced during Cycle 1 were excluded from the analysis set.

[3] = test system: sorafenib pretreated advanced hepatocellular carcinoma (aHCC); experiment: Phase 1b: tumour response and survival (RECIST v1.1, investigator); format: in vivo, human; details: for Best overall response CR / Best overall response Not evaluable / Best overall response PD / Best overall response PR / Best overall response SD: investigator RECIST v1.1
From the text: This was an open-label, multicentre, integrated, Phase 1b/2 trial conducted across Europe and the US in patients with aHCC who had failed sorafenib treatment.
as §4
In Phase 2, patients were required to have MET overexpression, based on assessment of a tumour biopsy sample collected after sorafenib discontinuation and within 28 days before the first day of study treatment. MET overexpression was defined as moderate (2+) or strong (3+) staining for MET in ≥50% of tumour cells by immunohistochemistry (IHC) using the pharmDx anti-total MET (D1C2) rabbit monoclonal antibody (Dako, Agilent Technologies, Inc., Santa Clara, CA) (Supplementary Table 2). MET status was not required for Phase 1b, but was determined retrospectively in a biopsy sample collected within 28 days before the first day of study treatment. MET amplification status was determined for patients in Phase 1b and 2 using formalin-fixed paraffin-embedded tumour material by fluorescent in situ hybridisation. MET amplification was defined as MET:CEP7 ratio ≥2 or mean gene copy number ≥5.
as §1, §2
In both phases, tumour assessments were performed per RECIST v1.1 and modified RECIST[29] v1.1 on Day 1 of every second cycle from Cycle 3 to 13, and Day 1 of every fourth cycle thereafter. Exploratory endpoints included biomarkers of MET pathway activity (including MET amplification status).
as §3
Tumour response (best overall response, ORR, DCR) and biological response were summarised, along with corresponding two-sided exact Clopper–Pearson 90% confidence intervals (CIs). Kaplan–Meier estimates of median PFS, TTP, time to symptomatic progression and OS are presented, along with 90% CIs (calculated using the two-sided exact Clopper–Pearson method). All statistical analyses were performed using SAS® Software version 9.4 (Statistical Analysis System, SAS-Institute, Cary, North Carolina, US).

[4] = moderate (Child–Pugh B) hepatic impairment relative to control patients; cited from earlier work
aHCC with MET alteration = test system: aHCC with MET alteration; design: method as in PMID 31853265; details: cited from earlier work
[5] = Phase 1b, 300 mg cohort (n = 4)
[6] = Phase 1b, 500 mg cohort (n = 13)

`CN1CCC(COc2cnc(-c3cccc(Cn4nc(-c5cccc(C#N)c5)ccc4=O)c3)nc2)CC1` [tepotinib] gave an AUC ([1]; 300 mg QD, geometric mean (geometric CV 18.2%)) of 15200 ng·h/mL, a Cmax ([1]; 300 mg QD, geometric mean (geometric CV 19.6%)) of 734 ng/mL and a Cmax ([1]; 500 mg QD, geometric mean (geometric CV 44.6%)) of 677 ng/mL. The AUC ([1]; 500 mg QD, geometric mean (geometric CV 50.4%)) was 12900 ng·h/mL, the “patients with at least one Grade ≥3 treatment-related AE” value [2] was 23.5% and the “patients with at least one treatment-related AE” value [2] was 82.4%. The “peripheral oedema, AE of any cause” value [2] was 76.5%, the “dose-limiting toxicities (DLTs) during Cycle 1” value ([2]; 300 and 500 mg QD cohorts) was “no DLTs” and the “AEs of any cause that led to death” value ([2]; N = 17) was 23.5%. The “patients with Grade ≥3 events of any cause” value ([2]; N = 17) was 58.8%, the “permanently discontinued treatment due to AEs of any cause” value ([2]; N = 17) was 17.6% and the “permanently discontinued treatment due to treatment-related AEs” value ([2]; N = 17 (peripheral oedema)) was 5.9%. The disease control [3, 5] was 50%, the objective responses [3, 5] was 50% and the disease control [3, 6] was 30.8%. For the same molecule, the objective responses [3, 6] was 0%, the DCR ([3]; Phase 1b, MET IHC 0) was 100.0% and the objective responses ([3]; Phase 1b, MET IHC 0 (n = 1)) was 0%. It also gave a DCR ([3]; Phase 1b, MET IHC 1+) of 40.0%, an objective responses ([3]; Phase 1b, MET IHC 1+ (n = 5)) of 20% and a DCR ([3]; Phase 1b, MET IHC 2+) of 42.9%. The objective responses ([3]; Phase 1b, MET IHC 2+ (n = 7)) was 14.3%, the DCR ([3]; Phase 1b, MET IHC 3+) was 0% and the objective responses ([3]; Phase 1b, MET IHC 3+ (n = 2)) was 0.0%. For the same molecule, the “Median TTP” value ([3]; Phase 1b, N = 17) was 2.1 months, the “median OS” value ([3]; Phase 1b, N = 17) was 7.2 months and the “median PFS” value ([3]; Phase 1b, N = 17) was 1.5 months. The “patients who had died at the time of the analysis” value ([3]; Phase 1b, N = 17) was 82.4%, the “patients with disease progression at the time of the analysis” value ([3]; Phase 1b, N = 17) was 70.6% and the disease control ([3]; Phase 1b, overall (N = 17)) was 35.3%. For the same molecule, the “best overall response partial response (PR)” value ([3]; Phase 1b, two of 17 patients, both 300 mg) was 11.8%, the “Best overall response CR” value ([3]; Phase 1b 300 mg/day (n = 4)) was 0 n (%) and the “Best overall response Not evaluable” value ([3]; Phase 1b 300 mg/day (n = 4)) was 1 (25.0) n (%). The “Best overall response PD” value ([3]; Phase 1b 300 mg/day (n = 4)) was 1 (25.0) n (%), the “Best overall response PR” value ([3]; Phase 1b 300 mg/day (n = 4)) was 2 (50.0) n (%) and the “Best overall response SD” value ([3]; Phase 1b 300 mg/day (n = 4)) was 0 n (%). The “Best overall response CR” value ([3]; Phase 1b 500 mg/day (n = 13)) was 0 n (%), the “Best overall response Not evaluable” value ([3]; Phase 1b 500 mg/day (n = 13)) was 1 (7.7) n (%) and the “Best overall response PD” value ([3]; Phase 1b 500 mg/day (n = 13)) was 8 (61.5) n (%). For the same molecule, the “Best overall response PR” value ([3]; Phase 1b 500 mg/day (n = 13)) was 0 n (%), the “Best overall response SD” value ([3]; Phase 1b 500 mg/day (n = 13)) was 4 (30.8) n (%) and the “Best overall response CR” value ([3]; Phase 1b Total (N = 17)) was 0 n (%). For the same molecule, the “Best overall response Not evaluable” value ([3]; Phase 1b Total (N = 17)) was 2 (11.8) n (%), the “Best overall response PD” value ([3]; Phase 1b Total (N = 17)) was 9 (52.9) n (%) and the “Best overall response PR” value ([3]; Phase 1b Total (N = 17)) was 2 (11.8) n (%). The “Best overall response SD” value ([3]; Phase 1b Total (N = 17)) was 4 (23.5) n (%), the “reduction in exposure, AUC from time 0 to infinity” value [4] was 12% and the “reduction in exposure, Cmax” value [4] was 29%.
For `CNC(=O)c1ccc(-c2cnc3ncc(Cc4ccc5ncccc5c4)n3n2)cc1F` [capmatinib], the objective response (aHCC with MET alteration; 3/10 patients, MET IHC 3+, or 2+ with MET gene copy number ≥5) is given as 30% and the objective response (aHCC with MET alteration; 3/30 patients, MET H-score ≥50%, MET:CEP7 ratio ≥2 or MET gene copy number ≥5) is given as 10%.

— paper PMC8292404 (British Journal of Cancer, 2021)
